Data: article PMC3692398 (Biochemical pharmacology, 2013)

Legend:
[1] = target: T1, hDAT (Homo sapiens, UniProt Q01959); assay: Inhibition of [125I]RTI-55 binding, HEK-hDAT membranes; conditions: read-out: Inhibition of [125I]RTI-55 binding Ki ± sem, hDAT; HEK-hDAT membranes
[2] = target: T2, hNET (Homo sapiens, UniProt P23975); assay: biochemical; type: binding; conditions: read-out: Inhibition of [125I]RTI-55 binding Ki ± sem, hNET; HEK-hNET membranes
[3] = target: T1, hDAT; assay: Inhibition of [3H]DA uptake, intact HEK-hDAT cells; type: cell-based
[4] = target: T3, hSERT (Homo sapiens, UniProt P31645); assay: Inhibition of [3H]5-HT uptake, intact HEK-hSERT cells; type: cell-based
[5] = target: T2, hNET; assay: cell-based; type: cell-based
[6] = target: T1, hDAT; assay: Superfusion release of preloaded [3H]DA from HEK-hDAT cells; type: cell-based
[7] = target: T3, hSERT; assay: Superfusion release of preloaded [3H]5-HT from HEK-hSERT cells; type: cell-based
[8] = target: T2, hNET; assay: Superfusion release of preloaded [3H]NE from HEK-hNET cells; type: cell-based
[9] = target: T4, hVMAT2 (Homo sapiens, UniProt Q05940); assay: Inhibition of [3H]5-HT uptake, HEK-hVMAT2 membrane preparation; type: biochemical; conditions: read-out: Inhibition of [3H]5-HT uptake IC50 ± sem, hVMAT2; 40 nM [3H]5-HT, 2 mM MgATP
[10] = target: T4, hVMAT2; assay: Superfusion release of preloaded [3H]NE from HEK-hVMAT2 cells; type: cell-based
[11] = target: T5, h5-HT1A receptor (Homo sapiens, UniProt P08908); assay: [3H]8-OH-DPAT binding, HEK-h5-HT1A; conditions: read-out: Inhibition of radioligand binding Ki ± sem, h5-HT1A [3H]8OH-DPAT
T5 sequence (P08908 1-422): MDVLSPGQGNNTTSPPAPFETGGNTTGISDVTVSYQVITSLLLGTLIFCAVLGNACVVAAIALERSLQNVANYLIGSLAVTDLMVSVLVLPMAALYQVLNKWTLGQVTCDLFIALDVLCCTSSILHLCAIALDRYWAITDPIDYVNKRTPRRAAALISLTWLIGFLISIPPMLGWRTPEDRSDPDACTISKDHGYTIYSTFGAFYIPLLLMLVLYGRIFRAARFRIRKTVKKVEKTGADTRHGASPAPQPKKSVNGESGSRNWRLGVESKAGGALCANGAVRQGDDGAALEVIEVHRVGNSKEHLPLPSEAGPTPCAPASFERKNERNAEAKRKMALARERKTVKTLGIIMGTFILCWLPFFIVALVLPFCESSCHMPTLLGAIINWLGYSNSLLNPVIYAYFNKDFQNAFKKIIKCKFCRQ

[12] = target: T6, h5-HT2A receptor (Homo sapiens, UniProt P28223); assay: [125I]DOI binding, HEK-h5-HT2A; conditions: read-out: Inhibition of radioligand binding Ki ± sem, h5-HT2A [125I]DOI
[13] = target: T7, h5-HT2C receptor (Homo sapiens, UniProt P28335); assay: biochemical; type: binding; conditions: read-out: Inhibition of radioligand binding Ki ± sem, h5-HT2C [125I]DOI
T7 sequence (P28335 33-458): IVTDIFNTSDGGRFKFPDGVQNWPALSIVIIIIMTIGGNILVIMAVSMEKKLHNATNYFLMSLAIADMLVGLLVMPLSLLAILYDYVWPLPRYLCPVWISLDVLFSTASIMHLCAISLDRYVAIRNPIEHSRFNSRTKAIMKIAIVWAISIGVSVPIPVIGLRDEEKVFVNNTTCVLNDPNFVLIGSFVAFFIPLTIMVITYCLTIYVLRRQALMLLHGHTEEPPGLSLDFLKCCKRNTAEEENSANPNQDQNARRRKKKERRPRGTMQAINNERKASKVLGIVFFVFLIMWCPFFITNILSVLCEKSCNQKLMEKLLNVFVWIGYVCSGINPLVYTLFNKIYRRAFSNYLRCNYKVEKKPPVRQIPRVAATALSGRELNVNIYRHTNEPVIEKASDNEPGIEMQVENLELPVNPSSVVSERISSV

[14] = target: T5, h5-HT1A receptor; assay: Stimulation of [35S]GTPγS binding, HEK-h5-HT1A membranes; type: biochemical
[15] = target: T6, h5-HT2A receptor; assay: Inhibition of 5-HT-stimulated IP-1 formation; type: cell-based; conditions: 100 nM 5-HT
[16] = target: T7, h5-HT2C receptor; assay: Inhibition of 5-HT-stimulated IP-1 formation; type: cell-based; conditions: 100 nM 5-HT; normalized to maximal inhibition by SB242084 (1 µM)
[17] = target: hSigma1 receptor (Homo sapiens, UniProt Q99720); assay: [3H]; type: binding; conditions: read-out: Inhibition of [3H]pentazocine binding Ki ± sem, hSigma1
[18] = target: human DA D1 receptor (Homo sapiens, UniProt P21728); assay: [3H]SCH23390 binding, LhD1 cells; conditions: test drugs up to the maximal concentration tested (10 µM)
[19] = target: human DA D2 receptor (Homo sapiens, UniProt P14416); type: binding; conditions: test drugs up to the maximal concentration tested (10 µM)
[20] = target: human DA D3 receptor (Homo sapiens, UniProt P35462); assay: [3H]YM-09151-2 binding, CHOp-D3 cells; conditions: test drugs up to 10 µM; words give concentration range, 'low' = low nanomolar
[21] = target: T8, human D4.4 receptor (Homo sapiens, UniProt P21917); type: binding; conditions: test drugs up to 10 µM; words give concentration range, 'low' = low nanomolar
T8 sequence (P21917 1-419): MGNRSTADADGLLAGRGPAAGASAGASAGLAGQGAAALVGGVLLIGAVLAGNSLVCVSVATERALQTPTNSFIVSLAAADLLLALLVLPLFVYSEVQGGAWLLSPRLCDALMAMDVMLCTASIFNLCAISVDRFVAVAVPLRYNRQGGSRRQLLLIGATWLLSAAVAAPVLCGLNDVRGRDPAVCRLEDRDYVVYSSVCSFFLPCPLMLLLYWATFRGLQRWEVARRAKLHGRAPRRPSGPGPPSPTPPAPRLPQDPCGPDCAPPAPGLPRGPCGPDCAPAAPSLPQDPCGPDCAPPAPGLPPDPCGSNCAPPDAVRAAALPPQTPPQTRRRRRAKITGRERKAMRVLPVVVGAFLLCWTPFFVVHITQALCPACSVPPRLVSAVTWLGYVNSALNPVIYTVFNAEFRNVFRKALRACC

[22] = target: T7, h5-HT2C receptor; type: cell-based; conditions: data not shown

T4 sequence (Q05940 whole entry, the tested form may be a part): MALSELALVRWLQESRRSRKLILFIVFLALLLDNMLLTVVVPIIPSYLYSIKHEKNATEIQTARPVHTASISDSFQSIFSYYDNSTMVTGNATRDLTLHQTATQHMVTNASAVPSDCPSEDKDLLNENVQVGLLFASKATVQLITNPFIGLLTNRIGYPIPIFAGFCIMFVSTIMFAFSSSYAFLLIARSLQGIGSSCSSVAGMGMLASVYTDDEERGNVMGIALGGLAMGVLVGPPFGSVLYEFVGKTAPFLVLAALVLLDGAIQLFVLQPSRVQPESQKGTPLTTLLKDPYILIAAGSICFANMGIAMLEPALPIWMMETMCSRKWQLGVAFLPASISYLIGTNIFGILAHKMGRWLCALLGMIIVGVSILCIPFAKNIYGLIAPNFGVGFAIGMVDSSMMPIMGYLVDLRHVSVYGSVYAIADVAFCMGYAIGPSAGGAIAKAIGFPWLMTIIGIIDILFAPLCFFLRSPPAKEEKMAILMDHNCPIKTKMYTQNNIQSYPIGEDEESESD
T3 sequence (P31645 whole entry): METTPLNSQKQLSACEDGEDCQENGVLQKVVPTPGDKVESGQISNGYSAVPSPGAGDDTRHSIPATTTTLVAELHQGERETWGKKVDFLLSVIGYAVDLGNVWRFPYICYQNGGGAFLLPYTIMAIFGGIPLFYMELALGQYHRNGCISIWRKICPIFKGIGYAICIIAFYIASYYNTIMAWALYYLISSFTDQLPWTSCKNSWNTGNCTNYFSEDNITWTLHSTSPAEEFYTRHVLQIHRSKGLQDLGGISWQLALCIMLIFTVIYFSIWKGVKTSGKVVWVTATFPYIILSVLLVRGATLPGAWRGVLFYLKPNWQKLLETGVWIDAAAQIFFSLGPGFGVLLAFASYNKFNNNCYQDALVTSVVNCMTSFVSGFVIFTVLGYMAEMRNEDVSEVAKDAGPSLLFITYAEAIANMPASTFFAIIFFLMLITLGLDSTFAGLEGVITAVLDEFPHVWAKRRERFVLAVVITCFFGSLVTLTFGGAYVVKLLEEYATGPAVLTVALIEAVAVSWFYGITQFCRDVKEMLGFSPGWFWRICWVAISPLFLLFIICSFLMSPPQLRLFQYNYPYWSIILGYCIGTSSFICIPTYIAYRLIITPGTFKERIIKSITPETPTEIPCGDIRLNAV
T2 sequence (P23975 whole entry): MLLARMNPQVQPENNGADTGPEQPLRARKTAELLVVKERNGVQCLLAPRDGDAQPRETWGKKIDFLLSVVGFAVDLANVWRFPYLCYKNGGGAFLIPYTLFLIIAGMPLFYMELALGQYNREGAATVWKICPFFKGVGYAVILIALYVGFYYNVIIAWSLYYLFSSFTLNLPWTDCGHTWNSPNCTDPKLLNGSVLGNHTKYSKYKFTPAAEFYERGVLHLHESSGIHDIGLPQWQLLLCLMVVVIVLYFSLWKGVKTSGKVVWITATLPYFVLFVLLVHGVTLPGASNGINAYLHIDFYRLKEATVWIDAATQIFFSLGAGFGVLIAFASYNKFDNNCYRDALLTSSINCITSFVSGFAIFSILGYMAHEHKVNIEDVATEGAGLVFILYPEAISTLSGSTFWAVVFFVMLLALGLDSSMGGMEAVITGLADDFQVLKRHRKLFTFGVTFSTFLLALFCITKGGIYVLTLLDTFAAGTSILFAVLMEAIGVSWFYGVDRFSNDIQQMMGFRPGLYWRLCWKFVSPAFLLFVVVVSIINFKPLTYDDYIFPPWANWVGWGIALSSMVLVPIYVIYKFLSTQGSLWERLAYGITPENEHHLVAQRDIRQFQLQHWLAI
T1 sequence (Q01959 whole entry): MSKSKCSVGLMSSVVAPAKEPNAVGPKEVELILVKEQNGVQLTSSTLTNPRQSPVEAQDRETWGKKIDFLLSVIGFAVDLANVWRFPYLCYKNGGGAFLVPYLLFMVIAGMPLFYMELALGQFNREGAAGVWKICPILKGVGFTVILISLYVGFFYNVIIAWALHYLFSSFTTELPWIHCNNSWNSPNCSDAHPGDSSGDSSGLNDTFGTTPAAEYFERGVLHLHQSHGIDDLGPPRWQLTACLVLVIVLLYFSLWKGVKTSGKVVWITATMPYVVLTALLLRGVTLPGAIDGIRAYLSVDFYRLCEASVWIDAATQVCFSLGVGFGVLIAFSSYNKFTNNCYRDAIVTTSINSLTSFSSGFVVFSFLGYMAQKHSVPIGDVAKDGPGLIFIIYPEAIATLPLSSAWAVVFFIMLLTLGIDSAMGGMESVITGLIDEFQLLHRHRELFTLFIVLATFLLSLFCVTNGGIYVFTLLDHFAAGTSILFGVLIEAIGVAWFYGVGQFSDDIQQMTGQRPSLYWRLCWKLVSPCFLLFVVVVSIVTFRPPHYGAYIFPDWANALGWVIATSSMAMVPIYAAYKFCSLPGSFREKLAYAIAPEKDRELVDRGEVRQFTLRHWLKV
T6 sequence (P28223 whole entry): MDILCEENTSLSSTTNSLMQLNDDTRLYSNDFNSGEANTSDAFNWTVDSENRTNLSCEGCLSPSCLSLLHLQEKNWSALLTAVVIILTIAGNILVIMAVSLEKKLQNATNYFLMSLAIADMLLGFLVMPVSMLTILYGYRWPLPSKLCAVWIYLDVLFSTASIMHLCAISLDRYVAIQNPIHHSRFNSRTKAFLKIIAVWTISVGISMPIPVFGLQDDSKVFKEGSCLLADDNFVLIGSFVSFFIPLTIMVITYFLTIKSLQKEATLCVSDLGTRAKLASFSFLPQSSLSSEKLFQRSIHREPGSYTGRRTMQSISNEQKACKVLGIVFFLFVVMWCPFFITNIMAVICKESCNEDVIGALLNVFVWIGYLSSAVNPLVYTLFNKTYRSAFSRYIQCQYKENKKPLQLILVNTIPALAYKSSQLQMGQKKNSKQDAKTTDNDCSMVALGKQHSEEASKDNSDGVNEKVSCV
human DA D1 receptor, sequence (P21728 whole entry): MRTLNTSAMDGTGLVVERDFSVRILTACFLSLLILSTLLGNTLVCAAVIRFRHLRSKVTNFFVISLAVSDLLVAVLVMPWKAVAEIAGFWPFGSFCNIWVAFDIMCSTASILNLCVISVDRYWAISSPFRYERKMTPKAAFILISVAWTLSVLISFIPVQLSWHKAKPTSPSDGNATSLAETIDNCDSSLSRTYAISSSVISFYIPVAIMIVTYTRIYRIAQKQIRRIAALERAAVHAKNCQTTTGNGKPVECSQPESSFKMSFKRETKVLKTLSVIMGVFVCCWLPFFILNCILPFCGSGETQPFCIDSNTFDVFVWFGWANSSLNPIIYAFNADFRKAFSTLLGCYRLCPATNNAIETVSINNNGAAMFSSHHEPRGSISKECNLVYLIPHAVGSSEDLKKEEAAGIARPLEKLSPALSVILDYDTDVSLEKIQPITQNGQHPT
human DA D2 receptor, sequence (P14416 whole entry): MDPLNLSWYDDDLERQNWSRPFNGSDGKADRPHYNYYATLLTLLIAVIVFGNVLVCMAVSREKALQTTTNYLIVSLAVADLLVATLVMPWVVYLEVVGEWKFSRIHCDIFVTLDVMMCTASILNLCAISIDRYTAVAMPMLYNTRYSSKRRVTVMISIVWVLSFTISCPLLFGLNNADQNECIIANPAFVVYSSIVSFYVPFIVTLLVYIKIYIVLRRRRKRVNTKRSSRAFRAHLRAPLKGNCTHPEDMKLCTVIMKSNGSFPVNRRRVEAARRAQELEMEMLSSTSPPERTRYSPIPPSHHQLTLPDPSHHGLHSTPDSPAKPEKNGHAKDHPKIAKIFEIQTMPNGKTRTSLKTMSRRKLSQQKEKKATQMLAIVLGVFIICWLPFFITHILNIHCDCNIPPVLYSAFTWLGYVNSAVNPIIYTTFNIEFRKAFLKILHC
human DA D3 receptor, sequence (P35462 whole entry): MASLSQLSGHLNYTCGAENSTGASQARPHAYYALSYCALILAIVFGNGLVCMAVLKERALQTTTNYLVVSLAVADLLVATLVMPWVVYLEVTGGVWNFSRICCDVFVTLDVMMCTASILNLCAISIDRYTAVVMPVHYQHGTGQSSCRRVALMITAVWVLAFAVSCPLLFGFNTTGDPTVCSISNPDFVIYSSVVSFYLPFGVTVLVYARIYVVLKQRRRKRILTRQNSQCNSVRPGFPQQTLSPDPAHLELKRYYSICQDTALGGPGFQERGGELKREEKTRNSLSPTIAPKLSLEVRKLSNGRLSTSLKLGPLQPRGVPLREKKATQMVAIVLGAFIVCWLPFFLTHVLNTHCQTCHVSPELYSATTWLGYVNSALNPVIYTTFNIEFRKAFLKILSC
hSigma1 receptor, sequence (Q99720 whole entry): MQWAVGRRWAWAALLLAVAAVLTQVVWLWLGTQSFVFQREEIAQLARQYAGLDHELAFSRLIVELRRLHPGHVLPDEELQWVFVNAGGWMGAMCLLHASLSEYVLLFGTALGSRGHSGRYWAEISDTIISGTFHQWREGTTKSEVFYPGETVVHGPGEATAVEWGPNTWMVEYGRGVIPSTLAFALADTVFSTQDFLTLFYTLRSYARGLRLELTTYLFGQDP

Structure (SMILES): CNC(C)C(=O)c1ccccc1 (stereo not shown) [Methcathinone, methcathinone, reference compound]
- Ki [1]: 3.3 ± 1.1 µM
- Ki [2]: 4.48 ± 0.49 µM
- ratio of binding Ki to uptake IC50, hDAT ([3]; [125I]RTI-55 Ki / [3H]DA uptake IC50): 23
- IC50 ([3]; read-out: Inhibition of [3H]neurotransmitter uptake IC50 ± sem, hDAT [3H]DA, 20 nM [3H]DA, intact cells): 0.144 ± 0.032 µM
- ratio of binding Ki to uptake IC50, hSERT ([4]; [125I]RTI-55 Ki / [3H]5-HT uptake IC50): > 7.4
- IC50 ([4]; read-out: Inhibition of [3H]neurotransmitter uptake IC50 ± sem, hSERT [3H]5-HT, 20 nM [3H]5-HT, intact cells): 13.5 ± 2.9 µM
- ratio of binding Ki to uptake IC50, hNET ([5]; [125I]RTI-55 Ki / [3H]NE uptake IC50): 144
- IC50 ([5]; read-out: Inhibition of [3H]neurotransmitter uptake IC50 ± sem, hNET [3H]NE, 20 nM [3H]NE, intact cells): 0.0311 ± 0.0051 µM
- % maximum release ± sem, hDAT [3H]DA [6]: 83.3 ± 4.9%
- EC50 ([6]; read-out: Drug-induced release of [3H]neurotransmitter EC50 ± sem, hDAT [3H]DA, superfusion, AUC): 3.57 ± 0.68 µM
- EC50 ([7]; read-out: Drug-induced release of [3H]neurotransmitter EC50 ± sem, hSERT [3H]5-HT, superfusion, AUC): > 100 µM
- % maximum release ± sem, hSERT [3H]5-HT ([7]; relative to maximal AUC induced by PCA (10 µM)): 21.1 ± 9.8%
- EC50 ([8]; read-out: Drug-induced release of [3H]neurotransmitter EC50 ± sem, hNET [3H]NE, superfusion, AUC): 0.228 ± 0.066 µM
- % maximum release ± sem, hNET [3H]NE ([8]; relative to maximal AUC induced by METH (0.3 or 1 µM)): 149 ± 42%
- IC50 [9]: 117 ± 57 µM
- Release of [3H]NE % maximum release ± sem or range, hVMAT2 [10]: 42 ± 10%
- EC50 ([10]; read-out: Drug-induced release of [3H]NE EC50 ± sem, hVMAT2, superfusion): 11.6 ± 7.3 µM
- Ki [11]: 29.1 ± 3.6 µM
- Ki [12]: 29.2 ± 3.3 µM
- Ki [13]: 16 ± 4.2 µM
- h5-HT1A Stimulation of [35S]GTPγS binding % maximum stimulation ± sem ([14]; normalized to the maximal stimulation by 5-HT): 52.8 ± 6.2%
- EC50 ([14]; read-out: h5-HT1A Stimulation of [35S]GTPγS binding EC50 ± sem): 49 ± 21 µM
- h5-HT2A Inhibition of 5-HT-stimulated IP-1 formation % maximum inhibition ± sem ([15]; normalized to maximal inhibition by ketanserin (10 µM)): 99.63 ± 0.37%
- IC50 ([15]; read-out: h5-HT2A Inhibition of 5-HT-stimulated IP-1 formation IC50 ± sem): 40 ± 9.5 µM
- h5-HT2C Inhibition of 5-HT-stimulated IP-1 formation % maximum inhibition ± sem [16]: 17.5 ± 4.0%
- Ki [17]: 117 ± 40 µM
- affinity for the [3H]SCH23390 binding site, DA D1 receptor [18]: no measurable affinity
- affinity for the [3H]YM-09151-2 binding site, DA D2 receptor [19]: no measurable affinity
- affinity for the [3H]YM-09151-2 binding site, DA D3 receptor [20]: no measurable affinity
- affinity for the [3H]YM-09151-2 binding site, DA D4.4 receptor [21]: no measurable affinity
- h5-HT2C agonist activity, inositol monophosphate [22]: partial agonists with midmicromolar potencies
